These results are taken from patent US9732119B2, “Immunomodulators” (BRISTOL-MYERS SQUIBB COMPANY, priority 2014, dated 2017).

This test concerns the target T1, PD-1-Ig binding to PD-L1-TVMV-His (PD-L1-His) (Homo sapiens, UniProt Q9NZQ7).
T1 construct: hPDL1(19-239)-TVMV-His; made in house; host or cells: HEK293T cells
Nature of the test: PD-1/PD-L1 Homogenous Time-Resolved Fluorescence (HTRF) binding assay. As to conditions: PD-1-Ig (20 nM) / PD-L1-His (10 nM); range classes. The text has this: The ability of the macrocyclic peptides of the present disclosure to bind to PD-L1 was investigated using a PD-1/PD-L1 Homogenous Time-Resolved Fluorescence (HTRF) binding assay.
Homogenous Time-Resolved Fluorescence (HTRF) Assays of Binding of Soluble PD-1 to Soluble PD-L1. Soluble PD-1 and soluble PD-L1 refers to proteins with carboxyl-end truncations that remove the transmembrane-spanning regions and are fused to heterologous sequences, specifically the Fc portion of the human immunoglobuling G sequence (Ig) or the hexahistidine epitope tag (His). All binding studies were performed in an HTRF assay buffer consisting of dPBS supplemented with 0.1% (w/v) bovine serum albumin and 0.05% (v/v) Tween-20. For the PD-1-Ig/PD-L1-His binding assay, inhibitors were pre-incubated with PD-L1-His (10 nM final) for 15 m in 4 μl of assay buffer, followed by addition of PD-1-Ig (20 nM final) in 1 μl of assay buffer and further incubation for 15 m. PD-L1 fusion proteins from either human, cynomologous macaques, mouse, or other species were used. HTRF detection was achieved using europium crypate-labeled anti-Ig monoclonal antibody (1 nM final) and allophycocyanin (APC) labeled anti-His monoclonal antibody (20 nM final). Antibodies were diluted in HTRF detection buffer and 5 μl was dispensed on top of binding reaction. […] Additional binding assays were established between PD-1-Ig/PD-L2-His (20 and 5 nM, respectively), CD80-His/PD-L1-Ig (100 and 10 nM, respectively) and CD80-His/CTLA4-Ig (10 and 5 nM, respectively).
Recombinant Proteins. […] Human PD-L2-His (Sino Biologicals), CD80-His (Sino Biologicals), CTLA4-Ig (RnD Systems) were all obtained through commercial sources.
(Time-resolved FRET reads energy transfer from a long-lived donor to a nearby acceptor.)

The structures appear in SMILES notation. Non-standard residues stand in square brackets, D forms with d. Residues, ends and D or L forms follow the SMILES beside them. Trp(1-CH2COOH) = N[C@@H](Cc1cn(CC(=O)O)c2ccccc12)C(=O)O; Hyp = O=C(O)[C@@H]1C[C@@H](O)CN1; NMeNle = CCCC[C@H](NC)C(=O)O; NMeA = CN[C@@H](C)C(=O)O; Dab = NCC[C@H](N)C(=O)O; Dap = NC[C@H](N)C(=O)O

T1 sequence (Q9NZQ7 with tags, fused parts or gaps): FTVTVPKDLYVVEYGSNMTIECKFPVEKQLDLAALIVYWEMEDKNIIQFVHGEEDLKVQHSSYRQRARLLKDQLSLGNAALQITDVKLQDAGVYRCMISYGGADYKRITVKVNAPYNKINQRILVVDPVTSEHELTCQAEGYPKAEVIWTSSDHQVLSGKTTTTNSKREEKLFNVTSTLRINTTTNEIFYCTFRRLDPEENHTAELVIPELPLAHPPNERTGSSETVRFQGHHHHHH

What is called IC50 is the midpoint of a concentration-inhibition curve. Read a high IC50 as weaker potency in that assay. In the case of `CCCC[C@H]1C(=O)N(C)[C@@H](CCCC)C(=O)NC(CC(C)C)C(=O)N[C@H](C(=O)NCC(N)=O)CNCC(=O)N[C@@H](Cc2ccc(O)cc2)C(=O)N(C)[C@@H](C)C(=O)N[C@@H](CC(N)=O)C(=O)N2CCC[C@H]2C(=O)N[C@@H](CN)C(=O)N[C@@H](CC(C)C)C(=O)N2C[C@H](O)C[C@H]2C(=O)N[C@@H](Cc2c[nH]c3ccccc23)C(=O)N[C@@H](CCN)C(=O)N[C@@H](Cc2c[nH]c3ccccc23)C(=O)N1C` (stereo partly shown) [Example 1029], the IC50 was 10 to 99 nM.

`CCCC[C@H]1C(=O)N(C)[C@@H](CCCC)C(=O)NC(CC(C)C)C(=O)N[C@H](C(=O)NCC(N)=O)CNCC(=O)N[C@@H](Cc2ccc(O)cc2)C(=O)N(C)[C@@H](C)C(=O)N[C@@H](CC(N)=O)C(=O)N2CCC[C@H]2C(=O)N[C@@H](CN)C(=O)N[C@@H](CC(C)C)C(=O)N2C[C@H](O)C[C@H]2C(=O)N[C@@H](Cc2c[nH]c3ccccc23)C(=O)N[C@@H](CCN)C(=O)N[C@@H](Cc2cn(CC(=O)O)c3ccccc23)C(=O)N1C` (stereo partly shown) [Example 1030] returned an IC50 of 1 to 9.9 nM.

On to `CCCC[C@H]1C(=O)N(C)[C@@H](CCCC)C(=O)NC(CC(C)C)C(=O)N[C@H](C(=O)NCC(N)=O)CNCC(=O)N[C@@H](Cc2ccc(O)cc2)C(=O)N(C)[C@@H](C)C(=O)N[C@@H](CC(N)=O)C(=O)N2CCC[C@H]2C(=O)N[C@@H](CN)C(=O)N[C@@H](CCC(=O)O)C(=O)N2C[C@H](O)C[C@H]2C(=O)N[C@@H](Cc2c[nH]c3ccccc23)C(=O)N[C@@H](CCN)C(=O)N[C@@H](Cc2cn(CC(=O)O)c3ccccc23)C(=O)N1C` (stereo partly shown) [Example 1031], for which the IC50 was in the range of 1 to 9.9 nM.

`CCCC[C@H]1C(=O)N(C)[C@@H](CCCC)C(=O)NC(CC(C)C)C(=O)N[C@H](C(=O)NCC(N)=O)CNCC(=O)N[C@@H](Cc2ccc(O)cc2)C(=O)N(C)[C@@H](C)C(=O)N[C@@H](CC(N)=O)C(=O)N2CCC[C@H]2C(=O)N[C@@H](CN)C(=O)N[C@@H](CC(C)C)C(=O)N2C[C@H](O)C[C@H]2C(=O)N[C@@H](Cc2c[nH]c3ccccc23)C(=O)N[C@@H](CCCCN)C(=O)N[C@@H](Cc2cn(CC(=O)O)c3ccccc23)C(=O)N1C` (stereo partly shown) [Example 1032]: the IC50 lay within 1 to 9.9 nM.

In turn, `CCCC[C@H]1C(=O)N(C)[C@@H](CCCC)C(=O)NC(CC(C)C)C(=O)N[C@H](C(N)=O)CNCC(=O)N[C@@H](Cc2ccc(O)cc2)C(=O)N(C)[C@@H](C)C(=O)N[C@@H](CC(N)=O)C(=O)N2CCC[C@H]2C(=O)N[C@@H](CN)C(=O)N[C@@H](CC(C)C)C(=O)N2C[C@H](O)C[C@H]2C(=O)N[C@@H](Cc2c[nH]c3ccccc23)C(=O)N[C@@H](CCCCN)C(=O)N[C@@H](Cc2cn(CC(=O)O)c3ccccc23)C(=O)N1C` (stereo partly shown) [Example 1033] registered an IC50 of 10 to 99 nM.

The compound `CCCC[C@H]1C(=O)N(C)[C@@H](CCCC)C(=O)NC(CC(C)C)C(=O)N[C@H](C(N)=O)CNCC(=O)N[C@@H](Cc2ccc(O)cc2)C(=O)N(C)[C@@H](C)C(=O)N[C@@H](CC(N)=O)C(=O)N2CCC[C@H]2C(=O)N[C@@H](CN)C(=O)N[C@@H](CC(C)C)C(=O)N2C[C@H](O)C[C@H]2C(=O)N[C@@H](Cc2c[nH]c3ccccc23)C(=O)N[C@@H](CCN)C(=O)N[C@@H](Cc2cn(CC(=O)O)c3ccccc23)C(=O)N1C` (stereo partly shown) [Example 1034] displayed an IC50 of 1 to 9.9 nM.

`CCCC[C@H]1C(=O)N(C)[C@@H](CCCC)C(=O)NC(CC(C)C)C(=O)N[C@H](C(N)=O)CNCC(=O)N[C@@H](Cc2ccc(O)cc2)C(=O)N(C)[C@@H](C)C(=O)N[C@@H](CC(N)=O)C(=O)N2CCC[C@H]2C(=O)N[C@@H](CN)C(=O)N[C@@H](CCC(=O)O)C(=O)N2C[C@H](O)C[C@H]2C(=O)N[C@@H](Cc2c[nH]c3ccccc23)C(=O)N[C@@H](CCN)C(=O)N[C@@H](Cc2cn(CC(=O)O)c3ccccc23)C(=O)N1C` (stereo partly shown) [Example 1035] showed a half-maximal inhibitory concentration (IC50) of 1 to 9.9 nM.

With `CCCC[C@H]1C(=O)N(C)[C@@H](CCCC)C(=O)N[C@@H](CC(C)C)C(=O)N[C@H](C(=O)NCC(N)=O)CNCC(=O)N[C@@H](Cc2ccc(O)cc2)C(=O)N(C)[C@@H](C)C(=O)N[C@@H](CC(N)=O)C(=O)N2CCC[C@H]2C(=O)N[C@@H](CN)C(=O)N[C@@H](CC(C)C)C(=O)N2C[C@H](O)C[C@H]2C(=O)N[C@@H](Cc2c[nH]c3ccccc23)C(=O)N[C@@H](CCCN)C(=O)N[C@@H](Cc2cn(CC(=O)O)c3ccccc23)C(=O)N1C` [Example 1036], the half-maximal inhibitory concentration (IC50) was in the range of 1 to 9.9 nM.

`CCCC[C@H]1C(=O)N(C)[C@@H](CCCC)C(=O)N[C@@H](CC(C)C)C(=O)N[C@H](C(=O)NCC(N)=O)CNCC(=O)N[C@@H](Cc2ccc(O)cc2)C(=O)N2CCCC[C@H]2C(=O)N[C@@H](CC(N)=O)C(=O)N2CCC[C@H]2C(=O)N[C@@H](CN)C(=O)N[C@@H](CC(C)C)C(=O)N2C[C@H](O)C[C@H]2C(=O)N[C@@H](Cc2c[nH]c3ccccc23)C(=O)N[C@@H](CCN)C(=O)N[C@@H](Cc2cn(CC(=O)O)c3ccccc23)C(=O)N1C` [Example 1037] gave an IC50 of 1 to 9.9 nM.

On to `CCCC[C@H]1C(=O)N(C)[C@@H](CCCC)C(=O)N[C@@H](CC(C)C)C(=O)N[C@H](C(N)=O)CNCC(=O)N[C@@H](Cc2ccc(O)cc2)C(=O)N2CCCC[C@H]2C(=O)N[C@@H](CC(N)=O)C(=O)N2CCC[C@H]2C(=O)N[C@@H](CN)C(=O)N[C@@H](CC(C)C)C(=O)N2C[C@H](O)C[C@H]2C(=O)N[C@@H](Cc2c[nH]c3ccccc23)C(=O)N[C@@H](CCN)C(=O)N[C@@H](Cc2cn(CC(=O)O)c3ccccc23)C(=O)N1C` [Example 1038], for which the IC50 lay within 1 to 9.9 nM.

The compound `CCCC[C@H]1C(=O)N(C)[C@@H](CCCC)C(=O)N[C@@H](CC(C)C)C(=O)N[C@H](C(=O)NCC(N)=O)CNCC(=O)N[C@@H](Cc2ccc(OC)cc2)C(=O)N(C)[C@@H](C)C(=O)N[C@@H](CC(N)=O)C(=O)N2CCC[C@H]2C(=O)N[C@@H](CN)C(=O)N[C@@H](CC(C)C)C(=O)N2C[C@H](O)C[C@H]2C(=O)N[C@@H](Cc2c[nH]c3ccccc23)C(=O)N[C@@H](CCN)C(=O)N[C@@H](Cc2cn(CC(=O)O)c3ccccc23)C(=O)N1C` [Example 1039] came in with an IC50 of 1 to 9.9 nM.

`CCCC[C@H]1C(=O)N(C)[C@@H](CCCC)C(=O)N[C@@H](CC(C)C)C(=O)N[C@H](C(=O)NCC(N)=O)CNCC(=O)N[C@@H](Cc2ccc(OC)cc2)C(=O)N2CCCC[C@H]2C(=O)N[C@@H](CC(N)=O)C(=O)N2CCC[C@H]2C(=O)N[C@@H](CN)C(=O)N[C@@H](CC(C)C)C(=O)N2C[C@H](O)C[C@H]2C(=O)N[C@@H](Cc2c[nH]c3ccccc23)C(=O)N[C@@H](CCN)C(=O)N[C@@H](Cc2cn(CC(=O)O)c3ccccc23)C(=O)N1C` [Example 1040]: the IC50 lay in the range of 1 to 9.9 nM.

Compound `CCCC[C@H]1C(=O)N(C)[C@@H](CCCC)C(=O)N[C@@H](CC(C)C)C(=O)N[C@H](C(=O)NCC(N)=O)CNCC(=O)N[C@@H](Cc2ccc(OC)cc2)C(=O)N(C)[C@@H](C)C(=O)N[C@@H](CC(N)=O)C(=O)N2CCC[C@H]2C(=O)N[C@@H](CN)C(=O)N[C@@H](CCC(=O)O)C(=O)N2C[C@H](O)C[C@H]2C(=O)N[C@@H](Cc2c[nH]c3ccccc23)C(=O)N[C@@H](CCN)C(=O)N[C@@H](Cc2cn(CC(=O)O)c3ccccc23)C(=O)N1C` [Example 1041] returned an IC50 of 1 to 9.9 nM.

In turn, `CCCC[C@H]1C(=O)N(C)[C@@H](CCCC)C(=O)N[C@@H](CC(C)C)C(=O)N[C@H](C(N)=O)CNCC(=O)N[C@@H](Cc2ccc(OC)cc2)C(=O)N2CCCC[C@H]2C(=O)N[C@@H](CC(N)=O)C(=O)N2CCC[C@H]2C(=O)N[C@@H](CN)C(=O)N[C@@H](CC(C)C)C(=O)N2C[C@H](O)C[C@H]2C(=O)N[C@@H](Cc2c[nH]c3ccccc23)C(=O)N[C@@H](CCN)C(=O)N[C@@H](Cc2cn(CC(=O)O)c3ccccc23)C(=O)N1C` [Example 1042] displayed an IC50 of 10 to 99 nM.

`CCCC[C@H]1C(=O)N(C)[C@@H](CCCC)C(=O)N[C@@H](CC(C)C)C(=O)NCC(=O)NCC(=O)N[C@@H](Cc2ccc(O)cc2)C(=O)N(C)[C@@H](C)C(=O)N[C@@H](CC(N)=O)C(=O)N2CCC[C@H]2C(=O)N[C@@H](CN)C(=O)N[C@@H](CC(C)C)C(=O)N2C[C@H](O)C[C@H]2C(=O)N[C@@H](Cc2c[nH]c3ccccc23)C(=O)N[C@@H](CCN)C(=O)N[C@@H](Cc2c[nH]c3ccccc23)C(=O)N1C` [Example 5001] (cyclo([Dab]W[NMeNle][NMeNle]LGGY[NMeA]NP[Dap]L[Hyp]W)) showed an IC50 of 1 to 9.9 nM.

`CCCC[C@H]1C(=O)N(C)[C@@H](CCCC)C(=O)N[C@@H](CC(C)C)C(=O)NCC(=O)NCC(=O)N[C@@H](Cc2ccc(O)cc2)C(=O)N(C)[C@@H](C)C(=O)N[C@@H](CC(N)=O)C(=O)N2CCC[C@H]2C(=O)N[C@@H](CN)C(=O)N[C@@H](CC(C)C)C(=O)N2C[C@H](O)C[C@H]2C(=O)N[C@@H](Cc2c[nH]c3ccccc23)C(=O)N[C@@H](CCN)C(=O)N[C@@H](Cc2cn(CC(=O)O)c3ccccc23)C(=O)N1C` [Example 5002] (cyclo([Dab][Trp(1-CH2COOH)][NMeNle][NMeNle]LGGY[NMeA]NP[Dap]L[Hyp]W)): the IC50 lay within 1 to 9.9 nM.
